Columns and labels:
ERK pathway = details: neuronal cells, reported (12); cited from earlier work
HeLa cells [1] = assay: Cell proliferation assay (cell counting, trypan blue); type: cell-based; details: CEP-11004 500 nM, up to 72 hours, cell number
Experimental: (§1) Following treatments cells were counted on a hemocytometer following trypsinization and staining with trypan blue (Sigma). Greater than 95% of the cells excluded trypan blue dye. Cell proliferation also was measured using a colony formation assay. […] Following incubation for 8-14 days, cells were fixed for 10 minutes in 4% paraformaldehyde and stained with 0.2% crystal violet (in 20% methanol) for 1-2 minutes. Cells were washed several times with distilled water and colonies formed (at least 40 cells/per colony) were counted.

NIH 3T3 cells = assay: as above; type: cell-based; details: CEP-11004 500 nM, up to 72 hours, cell number
Experimental: as §1

[2] = system: A549 airway epithelia carcinoma cell; assay: Colony formation assay; type: cell-based; details: varying doses, 14 days, crystal violet
Experimental: as §1

HeLa cells [3] = assay: FACS analysis of DNA content (cell cycle); type: cell-based
Experimental: (§2) In some experiments, cells were synchronized by double thymidine block as previously described (18-19). Briefly, cells were incubated for 16 hours with 2 mM thymidine in 10% FBS containing DMEM. The excess thymidine was washed off with Hanks Buffered Saline Solution (HBSS) and cells were released back into the cell cycle with complete medium. After 8 hours, cells were treated a second time with 2 mM thymidine in 10% FBS containing DMEM for another 16 hours to arrest cells at the G1/S-phase boundary. Synchronized cells were then washed with HBSS and released back into the cell cycle and harvested at various time points after G1/S release for analysis. Cell cycle analysis was done by fluorescence activated cell sorting (FACS) as described below.
Synchronized cells were trypsinized, washed with PBS, fixed with 3 ml of cold (−20° C.) 70% ethanol, and stored at 4° C. overnight. Cells then were incubated with 100 μg/ml propidium iodide (Sigma) dissolved in 0.2 M Tris, pH 7.5, 20 mM EDTA, 1 mg/ml RNase A (Sigma) for 1 hour at room temperature and diluted with an equal volume of PBS. DNA content was measured by flow cytometry (FACScan Analyzer, BD Biosciences) and was analyzed using the Sync Wizard Model, ModFit LT software (BD Biosciences). […]

HEK293 cells = assay: FACS analysis of DNA content (cell cycle); type: cell-based; details: treated for 20 hours; indicative of arrest in G2 or M-phase
Experimental: Synchronized cells were trypsinized, washed with PBS, fixed with 3 ml of cold (−20° C.) 70% ethanol, and stored at 4° C. overnight. Cells then were incubated with 100 μg/ml propidium iodide (Sigma) dissolved in 0.2 M Tris, pH 7.5, 20 mM EDTA, 1 mg/ml RNase A (Sigma) for 1 hour at room temperature and diluted with an equal volume of PBS. DNA content was measured by flow cytometry (FACScan Analyzer, BD Biosciences) and was analyzed using the Sync Wizard Model, ModFit LT software (BD Biosciences). To determine the percentage of G1, S and G2/M-phase cells, the settings for 2N and 4N peaks were defined within each experiment from the G1/S arrested cells and applied to all samples within a given experiment.

cyclin B1 = assay: Cyclin B1 immunoblot in synchronized HeLa cells; type: cell-based
Experimental: as §2
For protein analysis, cells were washed twice with cold phosphate buffered saline (PBS), lysed with 300 μl of tissue lysis buffer (TLB) (20 mM Tris-base, pH 7.4, 137 mM NaCl, 2 mM EDTA, 1% Triton X-100, 25 mM β-glycerophosphate, 2 mM sodium pyrophosphate, 10% glycerol, 1 mM sodium orthovanadate, 1 mM phenylmethysulfonyl fluoride (PMSF), and 1 mM benzamidine) and centrifuged at 20,000×g to clarify lysates. Approximately 20 μg of total protein was separated by SDS-PAGE. Proteins were transferred to PVDF membrane (Perkin Elmer Life Sciences; Boston, Mass.), blocked for 1-2 hours with 5% nonfat dry milk in Tris-buffered saline (TBS) (50 mM Tris-base, pH 7.4, 0.15 M NaCl, and 0.1% Tween-20) and incubated with the primary antibodies in TBS containing 1% BSA solution for 1 to 16 hours. Membranes were washed several times in TBS-Tween solution and incubated with HRP conjugated anti-mouse or anti-rabbit antibodies (0.1 μg/ml). Immunoreactivity was detected by enhanced chemiluminescence (ECL; Amersham, Buckinghamshire, England).

Cdc2 = Cdc2 kinase activity (immunoprecipitated, histone substrate) in synchronized HeLa cells; type: cell-based
Experimental: as §2
Cdc2 was immunoprecipitated from cell lysates by incubating with Cdc2 antibody (0.5 μg) for 2 hours on ice. The lysates then were incubated with protein G-sepharose with mixing at 4° C. for an additional 2 hours. The immune-complex was washed with cold kinase buffer and incubated for 30 min at 30° C. with kinase buffer containing 10 μCi γ-^32P ATP, 20 μM cold ATP, and 2.5 μg histone (Type III-SS, Sigma) as a substrate. The reactions were stopped with SDS-PAGE sample buffer and the proteins were resolved by SDS-PAGE. Incorporation of ^32P into histone was determined by phosphorimager analysis.

MLK3 [4] = target: T1, MLK3 (Homo sapiens, UniProt Q16584); assay: MLK3 kinase assay (immunoprecipitated from treated transfected cells, MBP substrate); type: cell-based
T1 construct: expressed in transfected cells; host or cells: HeLa
Experimental: Immunoprecipitated MLK3 was incubated for 45 min at 30° C. with kinase buffer containing 10 μCi γ-^32P ATP, 20 μM cold ATP, and 0.5 μg myelin basic protein (MBP) as a substrate. The reaction was quenched with 2×SDS sample buffer, separated by SDS-PAGE and transferred to PVDF membranes (Perkin Elmer, Boston, Mass.). Radioactive phosphate incorporation into MBP and MLK3 were analyzed by phosphorimager (Amersham Biosciences/Molecular Dynamics) and immunoblotting, respectively.

MLK3 [5] = target: T1, MLK3; assay: MLK3 induced JNK phosphorylation in transfected cells (immunoblot); type: cell-based
Experimental: (§3) HeLa, NIH 3T3, HEK293, A549, or MRC-5 cells were grown in a DMEM supplemented with 10% fetal bovine serum (FBS) and penicillin (100 U/ml) and streptomycin (100 μg/ml). Estrogen receptor (ER) negative breast cancer cells, SUM-159, were obtained from the University of Michigan Human Breast Cancer Cell Lines (SUM-Lines) and grown in DMEM+10% FBS. In some experiments, cells were transfected with cDNA (1 μg) for pEGFP (BD Biosciences/Clontech, Palo Alto, Calif.), hemagglutinin (HA)-tagged MLK3, kinase dead mutant MLK3 (MLK3 K144R), GFP-tagged MLK2 (kindly provided by Dr. Donna Dorow), Flag-tagged DLK, or HA-tagged JNK1 using Lipofectamine® (Invitrogen, Carlsbad, Calif.). Transfected cells were harvested 16-24 hours after transfection.
(§4) For protein analysis, cells were washed twice with cold phosphate buffered saline (PBS), lysed with 300 μl of tissue lysis buffer (TLB) (20 mM Tris-base, pH 7.4, 137 mM NaCl, 2 mM EDTA, 1% Triton X-100, 25 mM β-glycerophosphate, 2 mM sodium pyrophosphate, 10% glycerol, 1 mM sodium orthovanadate, 1 mM phenylmethysulfonyl fluoride (PMSF), and 1 mM benzamidine) and centrifuged at 20,000×g to clarify lysates. Approximately 20 μg of total protein was separated by SDS-PAGE. […] Immunoreactivity was detected by enhanced chemiluminescence (ECL; Amersham, Buckinghamshire, England).

MLK3 [6] = target: T1, MLK3; assay: MLK3-induced ERK activation in transfected HeLa cells (ppERK immunoblot); type: cell-based; details: CEP-11004 500 nM
Experimental: as §3, §4

MKK1 = assay: Constitutively active MKK1 induced ERK activation in transfected HeLa cells (ppERK immunoblot); type: cell-based; details: CEP-11004 500 nM
Experimental: as §3, §4

HeLa cells [7] = assay: Mitotic index / mitotic stage assay (DAPI) in synchronized HeLa cells; type: cell-based
Experimental: as §2
Cells grown on coverslips were synchronized at the G1/S-phase boundary as described in Examples 4-5. In some cases, MLK3 was co-expressed with the pEGFP vector in order to identify transfected cells. […] At varying times after release, coverslips were fixed and cellular DNA was stained with DAPI. GFP-positive mitotic cells in prophase, prometaphase, metaphase, anaphase, or telophase were identified, counted, and expressed as a fraction of the total cells counted to determine the mitotic index. Within each experiment, 300 to 350 cells were counted for each condition and time point.

histone H3 = assay: Phospho-histone H3 (serine 10) immunofluorescence in synchronized HeLa cells; type: cell-based
Experimental: as §2
(§5) Cells grown on round glass coverslips in 6-centimeter plates were synchronized at the G1/S-phase boundary using excess thymidine as described in Example 4. At the indicated time after release back into the cell cycle, coverslips were fixed with 4% paraformaldehyde for 8 minutes and permeabilized with 0.1% Triton X-100 in PBS for 2 minutes. Cell staining patterns were confirmed in cells that were fixed and permeabilized with cold methanol for 10 minutes. Cells were stained with antibodies against MLK3, α-tubulin, cyclin B1, phospho-specific histone H3, or p62 nucleoporin followed by incubation with fluorescein or Texas Red conjugated secondary antibodies and counterstaining for cellular DNA with 4′,6-diamidino-2-phenylindole (DAPI, 0.2 μg/ml in PBS). Cells were identified using Nikon E800 Epi-fluorescence microscope (Image Systems, Columbia, Md.) and captured with a Hamamatsu CCD camera. Cell images were processed using IPlab software (Scanalytics, Fairfax, Va.).

HeLa cells [8] = assay: Mitotic spindle immunostaining (α/γ-tubulin, DAPI) in synchronized HeLa cells; type: cell-based
Experimental: as §2, §5

MLK3 [9] = target: T1, MLK3; details: reference 11; cited from earlier work
[10] = 11 and 13 hours after G1/S-phase release, vs untreated
[11] = 400 nM, added 5 hours after release
[12] = treated at end of S-phase for 4 hours

T1 sequence (Q16584 whole entry): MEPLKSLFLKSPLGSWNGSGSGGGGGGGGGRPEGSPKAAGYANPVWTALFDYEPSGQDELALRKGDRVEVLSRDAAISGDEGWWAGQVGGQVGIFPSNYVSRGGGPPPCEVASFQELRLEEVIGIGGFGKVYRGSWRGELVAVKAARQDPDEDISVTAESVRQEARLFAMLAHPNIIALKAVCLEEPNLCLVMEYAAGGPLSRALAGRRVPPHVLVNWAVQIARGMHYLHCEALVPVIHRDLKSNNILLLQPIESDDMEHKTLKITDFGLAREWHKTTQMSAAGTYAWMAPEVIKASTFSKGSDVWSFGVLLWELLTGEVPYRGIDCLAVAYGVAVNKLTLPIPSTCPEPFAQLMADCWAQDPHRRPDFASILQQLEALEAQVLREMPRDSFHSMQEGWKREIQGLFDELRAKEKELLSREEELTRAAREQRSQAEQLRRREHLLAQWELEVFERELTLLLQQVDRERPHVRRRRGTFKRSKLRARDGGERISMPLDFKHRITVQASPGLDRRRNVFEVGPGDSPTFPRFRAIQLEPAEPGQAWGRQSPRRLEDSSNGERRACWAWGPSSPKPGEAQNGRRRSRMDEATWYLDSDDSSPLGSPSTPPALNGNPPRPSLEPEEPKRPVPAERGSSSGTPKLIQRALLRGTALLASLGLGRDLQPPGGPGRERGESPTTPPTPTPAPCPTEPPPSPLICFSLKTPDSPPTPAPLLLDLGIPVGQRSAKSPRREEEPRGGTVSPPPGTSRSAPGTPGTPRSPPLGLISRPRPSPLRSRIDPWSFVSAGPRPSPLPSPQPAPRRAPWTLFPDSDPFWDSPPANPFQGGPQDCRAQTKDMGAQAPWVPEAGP

CCSCc1ccc2c(c1)c1c3c(c4c5cc(CSCC)ccc5n5c4c1n2[C@H]1C[C@](O)(C(=O)OC)[C@]5(C)O1)CNC3=O (relative stereo) [CEP-1347, 3,9-bis[(ethylthio)methyl]-(8R*,9S*,11-S*)-(−)-9-hydroxy-9-methoxycarbonyl-8-methyl 2,3,9,10-tetrahydro-8,11-epoxy-1H,8H, 11H-2,7b,11a-triazadibenzo(a,g)cycloocta(cde)trinden-1-one]
effect on the ERK pathway (ERK pathway): activate the ERK pathway

3,9-bis-[(isopropylthio)methyl]-(8R*,9S*, 11S*)-(−)-9-hydroxy-9-methoxycarbonyl-8-methyl-2,3,9,10-tetrahydro-8,11-epoxy-1H,8H,11H-2,7b,11a-triazadibenzo(a,g)cycloocta(cde)trinden-1-one [CEP-11004]
HeLa cell proliferation (HeLa cells [1]): inhibited
proliferation of NIH 3T3 cells (NIH 3T3 cells): unaffected
A549 colony formation [2]: dose dependent inhibition
cell cycle progression in synchronized HeLa cells (4N DNA) (HeLa cells [3]; added 5 hours after G1/S release, 11 and 13 hours after release): arrest in G2 or M-phase
DNA content by FACS, HeLa cells (HeLa cells [3]; treated for 20 hours, indicative of arrest in G2 or M-phase): accumulated 4N DNA
DNA content by FACS, HEK293 cells (HEK293 cells): accumulated 4N DNA
cyclin B1 expression in synchronized HeLa cells (cyclin B1; [10]): sustained cyclin B1 expression
cyclin B1 levels in mock transfected cells (cyclin B1; 100 or 200 nM CEP-11004, 8 hours): elevated
cyclin B1 levels in MLK3 transfected cells (cyclin B1; 100 or 200 nM, vs mock transfected): lower cyclin B1 levels
Cdc2 kinase activity in synchronized HeLa cells (Cdc2; [10]): elevated Cdc2 kinase activity
Cdc2 activity in mock transfected vs MLK3 transfected cells (Cdc2; 100 or 200 nM CEP-11004): higher Cdc2 activity
expressed MLK3 activity (MBP phosphorylation) (MLK3 [4]; HA-MLK3 in HeLa cells, CEP-11004 500 nM, 4 hours): significantly inhibited
MLK3 activity during G2 and M-phase transitions (MLK3 [4]; data not shown): blocked
inhibition of MLK3 induced JNK1 phosphorylation (MLK3 [5]; 100 nM CEP-11004, HA-MLK3 + HA-JNK1 co-expressed): 80%
MLK3 induced JNK phosphorylation (MLK3 [5]; CEP-11004 500 nM, 4 hours, transfected cells): inhibited MLK3
MLK3-induced ERK activation (MLK3 [6]): inhibited
activity of MKK1 (non-MLK related protein kinase) (MKK1): does not affect
cells in metaphase or anaphase/telophase at 9 hours after G1/S (HeLa cells [7]; [11]): not evident
mitotic stage at 11 hours after G1/S release (HeLa cells [7]; [11]): primarily accumulated in pro-metaphase
pro-metaphase cells at 9 hours after G1/S (HeLa cells [7]; 400 nM, added 5 hours after release, vs untreated): accumulation of pro-metaphase cells
concentrations at which mitotic arrest occurs (HeLa cells [7]; as low as, FIGS. 6A-6C): 100 to 200 nM
percentage of pro-metaphase cells vs concentration (HeLa cells [7]; various concentrations for 8 hours (13 hours after G1/S release)): dose-dependent increase
nuclear pH3 staining during prophase (histone H3; added 5 hours after G1/S release, additional 4 hours): did not contain nuclear pH3 staining
pH3 staining after NEB in pro-metaphase (histone H3; both untreated and treated cells): readily apparent
lowest dose with inhibited pH3 staining in early mitotic cells (histone H3; data not shown): 200 nM
pH3 staining in early mitosis before NEB (histone H3; p62 nucleoporin co-staining): not observed
chromosome organization (DAPI) (HeLa cells [8]; [12]): highly disorganized
microtubule organization (α-tubulin) in mitotic cells (HeLa cells [8]; [12]): significant disruption
mitotic cells with aberrant microtubule organization (HeLa cells [8]; [12]): Greater than 60%
number of spindle poles (γ-tubulin) (HeLa cells [8]; [12]): no effect
microtubules of interphase cells (HeLa cells [8]; treated for 4 hours, data not shown): no apparent effects
specificity towards MLK3 as compared to MLK2 (MLK3 [9]): approximately 3 fold

Source: patent publication US20050209299A1, “Inhibition of mixed lineage kinases and uses therefor” (University of Maryland, Baltimore, priority 2004, published 2005)
